Laboratory results taken from patent publication US20140227173A1, “CANCER TREATMENT WITH GAMMA-SECRETASE INHIBITORS” (The Johns Hopkins University, priority 2006, published 2014).

Legend:
Test in all cases: Flow cytometric analysis of CD133-positive fraction
Type in all cases: cell-based
[1] = test system: D425; details: 2 μM
From the text: (§1) The effects of Notch on the CD133-positive CSC subpopulation were first examined. Singh and colleagues have shown that only CD133-positive MB and glioblastoma cells are able to form multipotent neurosphere clones or tumor xenografts (6, 12). Another type of brain tumor, ependymoma, also appears to contain a small fraction of CD133-positive cells uniquely capable of initiating tumor xenografts (9). […] The D283Med and D425Med lines, which grow in suspension, contained higher percentages of CD133 positive cells. Sorting of DAOY cultures using magnetic beads coated with antibodies specific for CD133 generated an enriched population in which 30% of cells expressed the stem cell marker, and a negative population in which less than 1% of cells were CD133-positive. […] Thus Notch signaling appears to be especially active in CSC, raising the possibility that inhibition of this pathway may target the CSC population.
(§2) The DAOY, PFSK, D283 and D425 Med cell lines were obtained from the American Type Culture Collection. The low-passage MB line MB2 was derived from a tumor resected at Johns Hopkins Hospital. For treatment studies, cell were plated and allowed to grow overnight in MEM (Invitrogen, Carlsbad, Calif.) containing 10% FBS, then media was replaced the next morning with low serum (0.5% FBS) MEM containing GSI dissolved in DMSO. RNA and protein extractions, and all cell-based assays, were performed 48 hours after drug application unless otherwise noted. All experiments with error bars were performed in triplicate and shown as mean values with standard error unless otherwise noted. Cell mass was measured using CellTITER assays according to the manufacturer's instructions (Promega, Madison, Wis.). Cell number and viability were assessed using the Guava PCA and Viacount reagent according to instructions (Guava Technologies, Heyward, Calif.). Soft agar assays were performed as previously described (15) and scored either manually after 4 weeks or using as automated reader after 6 weeks. The constitutively active Akt stable cell line was made by transfecting DAOY cells with myristolated Akt (pCB6-IMy-Akt-HA) or control (pCB6+) plasmids (kind gifts from Susan J. Baker) and selecting and maintaining clones in 0.8 mg/ml G418. Soft agar assays were performed as previously described, with colonies counted using an automated reader (15).
(§3) Flow cytometric analysis of S-phase fraction and cell cycle kinetics was performed using a FACSCalibur (Becton Dickinson, San Jose, Calif.) with CELL Quest, version 3.3 software (15). CD133 studies were performed using the same instrument, with antibodies from Miltenyi (Miltenyi Biotec, Auburn, Calif.) according to the manufacturer's instructions. Cells expressing levels of CD133 higher than those seen in IgG controls were considered positive. For analyses of side population, cells (10^6/ml) were incubated with Hoechst 33342 (3 μM, Molecular Probes, Carlsbad, Calif.) for 90 minutes at 37° C. in DMEM containing 2% FBS. Prior to analysis, cells were washed and resuspended in 2 μg/ml PI (Sigma, St. Louis, Mo.). Cells were analyzed on a LSR flow cytometer equipped with 424/44 nm band pass and 670 nm long pass optical filters (Omega Optical, Brattleboro, Vt.). To ensure proper identification of SP cells, cells were incubated as above with the addition of 50 μM verapamil (Sigma).

[2] = test system: DAOY; details: 2 μM, 48 hours
From the text: as §1, §2, §3

[3] = test system: PFSK; details: 2 μM, p<0.01
From the text: as §1, §2, §3

O=S(=O)(NC1C2CCC1Cc1ccccc1C2)c1cccs1 (stereo not drawn) [GSI-18, [11-endo]-N-(5,6,7,8,9,10-hexahydro-6,9-methanobenzo[α][8]annulen-11-yl)-thiophene-2-sulfonamide]
decrease in the percentage of CD133-positive cells [1]: less pronounced | fold reduction of CD133-positive stem-like fraction ([2]; p<0.01): 3 fold | CD133-positive stem-like fraction after treatment ([2]; untreated 9.9%): 3.3% | fold reduction in the percentage of CD133-positive cells [3]: 4.8 fold
